Laboratory results as given in patent publication US9580449B2, “Compositions and methods for the production of pyrimidine and pyridine compounds with BTK inhibitory activity” (Merck Patent GmbH, priority 2011, dated 2017).

Each compound was assayed against full-length human BTK (Homo sapiens (Human), UniProt Q06187) (assay: BTK IC50 enzyme assay (microfluidic off-chip mobility shift kinase assay)). Conditions: incubated for 90 min. at 27 C; read-out: Time Dependent BTK Enzyme Assay IC50.
full-length human BTK, sequence (Q06187 whole entry): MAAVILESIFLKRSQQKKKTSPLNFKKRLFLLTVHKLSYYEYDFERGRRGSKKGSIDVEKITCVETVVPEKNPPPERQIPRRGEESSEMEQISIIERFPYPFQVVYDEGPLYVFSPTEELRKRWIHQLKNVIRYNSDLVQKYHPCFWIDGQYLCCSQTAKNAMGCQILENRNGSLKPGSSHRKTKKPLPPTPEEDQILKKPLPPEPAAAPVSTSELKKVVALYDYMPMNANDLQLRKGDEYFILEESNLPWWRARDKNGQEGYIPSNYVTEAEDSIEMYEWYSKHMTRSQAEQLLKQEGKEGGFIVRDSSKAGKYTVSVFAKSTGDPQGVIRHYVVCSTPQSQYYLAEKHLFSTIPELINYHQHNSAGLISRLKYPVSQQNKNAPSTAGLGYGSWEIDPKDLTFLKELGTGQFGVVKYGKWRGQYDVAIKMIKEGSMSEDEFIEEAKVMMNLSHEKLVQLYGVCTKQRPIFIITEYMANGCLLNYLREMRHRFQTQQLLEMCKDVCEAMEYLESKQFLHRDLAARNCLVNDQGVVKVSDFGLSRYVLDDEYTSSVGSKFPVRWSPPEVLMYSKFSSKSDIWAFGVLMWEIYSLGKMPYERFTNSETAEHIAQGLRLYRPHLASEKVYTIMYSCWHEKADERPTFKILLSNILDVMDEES
Assay type: biochemical
Method: The following describes a microfluidic, off-chip mobility shift kinase assay used to measure inherent potency of compounds against BTK enzyme. Compounds described by embodiments of the present invention were assayed using this protocol and the data from the same is recorded in Table 2 within the column labeled: “Time Dependent BTK Enzyme Assay IC50”.
Stopped reactions were monitored at −2 PSI, −3000 V/−700 V in a LabChip 3000 plate reader from Caliper Life Sciences, a PerkinElmer Company (Hopkinton, Mass.), and the activity was measured by off-chip mobility shift assay measuring the charge/mass difference between substrate and product resulting from peptide phosphorylation. IC50 and efficacy were determined by plotting log [Inhibitor] vs. % Activity in GeneData Screener (Basel, Switzerland). […] I<1 uM and II>1 uM.
In the case of C=CC(=O)N1CC(CCNc2ncnc(N)c2-c2ccc(Oc3ccccc3)cc2)C1 [A103, 1-(3-(2-((6-amino-5-(4-phenoxyphenyl)pyrimidin-4-yl)amino)ethyl)azetidin-1-yl)prop-2-en-1-one], the IC50 is reported as < 1000 nM. With C#CC(=O)N1CC(CCNc2ncnc(N)c2-c2ccc(Oc3ccccc3)cc2)C1 [A104, 1-(3-(2-((6-amino-5-(4-phenoxyphenyl)pyrimidin-4-yl)amino)ethyl)azetidin-1-yl)prop-2-yn-1-one] the IC50 was < 100 nM. For C=CC(=O)N1CC2(CC(Nc3ncnc(N)c3-c3cnn(Cc4ccccc4)c3)C2)C1 [A107, 1-(6-((6-amino-5-(1-benzyl-1H-pyrazol-4-yl)pyrimidin-4-yl)amino)-2-azaspiro[3.3]heptan-2-yl)prop-2-en-1-one], the IC50 was < 1000 nM. For CC#CC(=O)N1CC2(CC(Nc3ncnc(N)c3-c3ccc(Oc4ccccc4)cc3)C2)C1 [A108, 1-(6-((6-amino-5-(4-phenoxyphenyl)pyrimidin-4-yl)amino)-2-azaspiro[3.3]heptan-2-yl)but-2-yn-1-one], the IC50 was < 100 nM. C=CC(=O)N1CC[C@@H](CNc2ncnc(N)c2-c2cnn(Cc3ccccc3)c2)[C@H](O)C1 [A109, 1-((3S,4S)-4-(((6-amino-5-(1-benzyl-1H-pyrazol-4-yl)pyrimidin-4-yl)amino)methyl)-3-hydroxypiperidin-1-yl)prop-2-en-1-one] was tested, and the IC50 was < 100 nM. With C#CC(=O)N1CC[C@@H](CNc2ncnc(N)c2-c2cnn(Cc3ccccc3)c2)[C@H](O)C1 [A110, 1-((3S,4S)-4-(((6-amino-5-(1-benzyl-1H-pyrazol-4-yl)pyrimidin-4-yl)amino)methyl)-3-hydroxypiperidin-1-yl)prop-2-yn-1-one] the IC50 was < 100 nM. C#CC(=O)N1CC2(CC(Nc3ncnc(N)c3-c3cnn(Cc4ccccc4)c3)C2)C1 [A111, 1-(6-((6-amino-5-(1-benzyl-1H-pyrazol-4-yl)pyrimidin-4-yl)amino)-2-azaspiro[3.3]heptan-2-yl)prop-2-yn-1-one] was tested, and the IC50 was < 100 nM. For C#CC(=O)N1CC2(CC(Oc3ncnc(N)c3-c3cnn(Cc4ccccc4)c3)C2)C1 [A112, 1-(6-((6-amino-5-(1-benzyl-1H-pyrazol-4-yl)pyrimidin-4-yl)oxy)-2-azaspiro[3.3]heptan-2-yl)prop-2-yn-1-one], the IC50 was < 100 nM. For C=CC(=O)NC1CC2(C1)CC(Nc1ncnc(N)c1-c1ccc(Oc3ccccc3)cc1)C2 (stereo not shown) [A122, N-(6-((6-amino-5-(4-phenoxyphenyl)pyrimidin-4-v)amino)spiro[3.3]heptan-2-yl)acrylamide], the IC50 was > 1000 nM. For C=CC(=O)N1CCC2(CCC2Nc2ncnc(N)c2-c2ccc(Oc3ccccc3)cc2)CC1 (stereo not shown) [A123, 1-(1-((6-amino-5-(4-phenoxyphenyl)pyrimidin-4-yl)amino)-7-azaspiro[3.5]nonan-7-yl)prop-2-en-1-one], the IC50 was > 1000 nM. C=CC(=O)N1CCC(Nc2ncnc(N)c2-c2ccc(Oc3ccccc3)cc2)CC12CCC2 (stereo not shown) [A125, 1-(8-((6-amino-5-(4-phenoxyphenyl)pyrimidin-4-yl)amino)-5-azaspiro[3.5]nonan-5-yl)prop-2-en-1-one] was tested, and the IC50 was > 1000 nM. For CC#CC(=O)c1cccc(CNc2ncnc(N)c2-c2ccc(Oc3ccccc3)cc2)c1 [A141, 1-(3-((6-Amino-5-(4-phenoxyphenyl)-pyrimidin-4-ylamino)-methyl)-phenyl)-but-2-yn-1-one], the IC50 was < 1000 nM. In the case of CC=CC(=O)c1cccc(CNc2ncnc(N)c2-c2ccc(Oc3ccccc3)cc2)c1 [A142, 1-(3-((6-Amino-5-(4-phenoxyphenyl)-pyrimidin-4-ylamino)-methyl)-phenyl)-but-2-en-1-one], the IC50 is reported as < 100 nM. For C=CC(=O)[C@H]1CCC[C@H](Nc2ncnc(N)c2-c2ccc(Oc3ccccc3)cc2)C1 [A143, 1-((1S,3S)-3-(6-Amino-5-(4-phenoxyphenyl)-pyrimidin-4-ylamino)-cyclohexyl)-propenone], the IC50 was < 100 nM. In the case of CC=CC(=O)[C@H]1CCC[C@H](Nc2ncnc(N)c2-c2ccc(Oc3ccccc3)cc2)C1 [A144, 1-((1S,3S)-3-(6-Amino-5-(4-phenoxyphenyl)-pyrimidin-4-ylamino)-cyclohexyl)-but-2-en-1-one], the IC50 is reported as < 100 nM. CC#CC(=O)[C@H]1CCC[C@H](Nc2ncnc(N)c2-c2ccc(Oc3ccccc3)cc2)C1 [A145, 1-((1S,3S)-3-(6-Amino-5-(4-phenoxyphenyl)-pyrimidin-4-ylamino)-cyclohexyl)-but-2-yn-1-one] was tested, and the IC50 was < 100 nM. In the case of CC=CC(=O)[C@H]1CCC[C@@H](Nc2ncnc(N)c2-c2ccc(Oc3ccccc3)cc2)C1 [A146, 1-((1S,3R)-3-(6-Amino-5-(4-phenoxyphenyl)-pyrimidin-4-ylamino)-cyclohexyl)-but-2-en-1-one], the IC50 is reported as < 100 nM. CC#CC(=O)[C@H]1CCC[C@@H](Nc2ncnc(N)c2-c2ccc(Oc3ccccc3)cc2)C1 [A147, 1-((1S,3R)-3-(6-amino-5-(4-phenoxyphenyl)-pyrimidin-4-ylamino)-cyclohexyl)-but-2-yn-1-one] was tested, and the IC50 was < 100 nM. For C=CC(=O)Nc1cccc(Oc2ccnc(N)c2-c2ccc(OCc3ccccc3)cc2)c1 [A149, N-(3-((2-amino-3-(4-(benzyloxy)phenyl)pyridin-4-yl)oxy)phenyl)acrylamide], the IC50 was < 1000 nM. With C=CC(=O)N1CCCC(Nc2nc(N)ncc2-c2ccc(Oc3ccccc3)cc2)C1 (stereo not shown) [A150, 1-(3-((2-amino-5-(4-phenoxyphenyl)pyrimidin-4-yl)amino)piperidin-1-yl)prop-2-en-1-one] the IC50 was < 1000 nM. With CN(C)C/C=C/C(=O)Nc1cccc(Oc2ccnc(N)c2-c2ccc(OCc3ccccc3)cc2)c1 [A152, (E)-N-(3-((2-amino-3-(4-(benzyloxy)phenyl)pyridin-4-yl)oxy)phenyl)-4-(dimethylamino)but-2-enamide] the IC50 was < 1000 nM. CN(C)C/C=C/C(=O)N1CCC(CNc2ncnc(N)c2-c2ccc(Oc3ccccc3)cc2)CC1 [A153, (E)-1-(4-(((6-amino-5-(4-phenoxyphenyl)pyrimidin-4-yl)amino)methyl)piperidin-1-yl)-4-(dimethylamino)but-2-en-1-one] was tested, and the IC50 was < 1000 nM. C=CC(=O)N[C@H]1CC[C@@H](Nc2ncnc(N)c2-c2ccc(OCc3ccccc3)cc2)CC1 [A154] was tested, and the IC50 was > 1000 nM. C=CC(=O)N1CCC(CNc2ncnc(N)c2-c2ccc(C(=O)Nc3ccccc3)cc2)C1 (stereo not shown) [A155, 4-(4-(((1-acryloylpyrrolidin-3-yl)methyl)amino)-6-aminopyrimidin-5-yl)-N-phenylbenzamide] was tested, and the IC50 was > 1000 nM. With C=CC(=O)N1CCC(CNc2ncnc(N)c2-c2ccc(OCc3ccccc3)cc2)C1 (stereo not shown) [A156, 1-(3-(((6-amino-5-(4-(benzyloxy)phenyl)pyrimidin-4-yl)amino)methyl)pyrrolidin-1-yl)prop-2-en-1-one] the IC50 was < 1000 nM. In the case of C=CC(=O)N1CCC(CNc2ncnc(N)c2-c2ccc(C(=O)Nc3ccccc3)cc2)CC1 [A157, 4-(4-(((1-acryloylpiperidin-4-yl)methyl)amino)-6-aminopyrimidin-5-yl)-N-phenylbenzamide], the IC50 is reported as > 1000 nM. For C=CC(=O)Nc1ccc(F)c(Oc2ccnc(N)c2-c2ccc(Oc3ccccc3)cc2)c1 [A158, N-(3-((2-amino-3-(4-phenoxyphenyl)pyridin-4-yl)oxy)-4-fluorophenyl)acrylamide], the IC50 was < 100 nM. For C=CC(=O)N[C@H]1CC[C@@H](Nc2ncnc(N)c2-c2ccc(C(=O)Nc3ccccc3)cc2)CC1 [A159, 4-(4-((cis-4-acrylamidocyclohexyl)amino)-6-aminopyrimidin-5-yl)-N-phenylbenzamide], the IC50 was > 1000 nM.
